Measured values published in patent US9771333B2, “Quinazoline derivatives as TAM family kinase inhibitors” (SIGNALCHEM LIFESCIENCES CORP., priority 2013, dated 2017).

Key:
Format in all cases: biochemical
human Mer = target: T1, human Mer (Homo sapiens, UniProt Q12866); assay: Kinase enzymatic activity assay (33P-radiolabeled phosphate transfer), Mer; conditions: recombinant human Mer (578-872), poly(4:1 glu:tyr) substrate, 30 minutes
T1 construct: GST (N); made in house; host or cells: Sf9 insect cells (baculovirus)
T1 sequence (Q12866 578-872): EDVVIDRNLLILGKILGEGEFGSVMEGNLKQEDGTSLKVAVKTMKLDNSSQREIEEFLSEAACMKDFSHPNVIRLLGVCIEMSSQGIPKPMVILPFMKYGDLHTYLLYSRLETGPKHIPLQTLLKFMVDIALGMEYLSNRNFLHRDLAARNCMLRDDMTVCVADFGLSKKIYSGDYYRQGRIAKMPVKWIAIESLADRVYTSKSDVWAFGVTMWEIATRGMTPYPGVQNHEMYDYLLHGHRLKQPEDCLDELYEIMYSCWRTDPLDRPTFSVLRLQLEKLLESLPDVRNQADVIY
Excerpt: (§1) The identification of compounds of the invention as Tyro3, Axl or Mer inhibitors was readily accomplished using the recombinant human Tyro3, Axl and Mer proteins and employing the ^33P-radiolabeled phosphate transfer assay for which the procedure is known to someone skilled in the art or as described in Example 9.
(§2) Recombinant human Tyro3 (455-end, the gene accession number NM_006293), human Axl (473-end, the gene accession number NM_021913) and human Mer (578-872, the gene accession number NM_006343) were independently expressed by baculovirus in Sf9 insect cells using an N-terminal GST tag. The recombinant proteins were stored at −70° C. in a medium containing 50 mM Tris-HCl, pH 7.5, 150 mM NaCl, 10 mM glutathione, 0.1 mM EDTA, 0.25 mM DTT, 0.1 mM PMSF and 25% glycerol. The recombinant proteins were aliquoted into smaller quantities after centrifugation to avoid repeated handling and multiple freeze/thaw cycles for the most favorable performance.
(§3) Kinase Assay Buffer: This buffer solution consisted of the following components: 25 mM MOPS, pH 7.2, 12.5 mM β-glycerol-phosphate, 25 mM MgCl2, 5 mM EGTA, 2 mM EDTA and DTT 0.25 mM which was added prior to use.
(§4) Kinase Dilution Buffer: Kinase Assay Buffer was diluted at a 1:4 ratio (5× dilution) with distilled water.
(§5) [^33P]-ATP assay cocktail: In a designated radioactive working area, a 250 μM [^33P]-ATP assay cocktail was prepared by the addition of the following components: 150 μL of 10 mM ATP stock solution, 100 μL [^33P]-ATP (1 mci/100 μL), and 5.75 mL of kinase assay buffer. This solution was stored in 1 mL aliquots at −20° C.
(§6) ATP stock solution (10 mM): The ATP stock solution was prepared by dissolving 55 mg of ATP in 10 mL of kinase assay buffer. It was stored in 200 μL aliquots at −20° C.
(§7) Active Kinase Stock Solution: The active recombinant kinase protein (0.1 μg/μL) was diluted with Kinase Dilution Buffer and the activity was assayed using a serial dilution method. The specific activity is expressed in nmoL/min/mg.
(§8) Substrates: poly(4:1 glu:tyr) is the substrate used for each kinase Tyro3, Axl and Mer: The peptide substrate was dissolved in water to give the final concentration of 1 mg/mL.
(§9) Test compound solution: Test compound was dissolved in DMSO to obtain a 10 mM solution. The assay solution was prepared by adding 5 μL of this solution to […] of 10% DMSO/water to obtain the final concentration of 50 μM.
(§10) The enzymatic activity of all three kinases was determined as follows. Using a 96-well plate, the wells were divided into three categories: Blank wells, […] and Test wells. In Test wells, 5 μL of the test compound solution and 5 μL of the substrate solution were added. In Control wells, 5 μL of 10% DMSO/water and 5 μL of the substrate solution were added. In Blank wells, 10 μL of 10% DMSO/water was added. To each well was added 10 μL of Active Kinase Stock Solution to make up the volume in each well to 20 μL. All test samples, controls and blanks were run in duplicate. The reaction was initiated by the addition of 5 μL of [^33P]-ATP assay cocktail, bringing the final volume up to 25 μL in every well. The mixture was incubated at room temperature for 30 minutes. The reaction was terminated by transferring 10 μL of the reaction mixture into a Millipore MultiScreen filter plate (cat. number MSPHN6B50). The filter plate was washed in a 1% phosphoric acid solution with constant gentle shaking for 15 minutes and this step was repeated once. After the plate was dried in air, scintillation fluid was added to each well and the radioactivity in each well in CPM was counted by a Microbeta TriLux. The corrected CPM in each test well was determined by subtracting the average value of Blank well values. Percentage of inhibition of the kinase enzymatic activity by the test compound was determined using the following formula: […]
(§11) The IC50 values were determined in a similar way following a serial dilution of the test compound. […]

human Tyro3 = target: T2, human Tyro3 (Homo sapiens, UniProt Q06418); assay: Kinase enzymatic activity assay (33P-radiolabeled phosphate transfer), Tyro3; conditions: recombinant human Tyro3 (455-end), poly(4:1 glu:tyr) substrate, 30 minutes
T2 construct: GST (N); made in house; host or cells: Sf9 insect cells (baculovirus)
T2 sequence (Q06418 455-890 limits assumed): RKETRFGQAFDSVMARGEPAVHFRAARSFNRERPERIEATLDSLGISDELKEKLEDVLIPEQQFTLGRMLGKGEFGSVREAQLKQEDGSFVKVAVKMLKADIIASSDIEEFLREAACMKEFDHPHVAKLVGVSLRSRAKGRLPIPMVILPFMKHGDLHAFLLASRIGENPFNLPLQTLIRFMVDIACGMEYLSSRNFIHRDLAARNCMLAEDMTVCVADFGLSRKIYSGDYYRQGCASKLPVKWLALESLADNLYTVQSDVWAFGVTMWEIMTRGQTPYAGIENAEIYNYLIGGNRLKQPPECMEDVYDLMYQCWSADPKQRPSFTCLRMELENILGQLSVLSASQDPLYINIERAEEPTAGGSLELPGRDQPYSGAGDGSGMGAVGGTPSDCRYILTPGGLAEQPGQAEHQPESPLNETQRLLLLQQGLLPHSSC
Excerpt: as §1, §2, §3, §4, §5, §6, §7, §8, §9, §10, §11

human Axl = target: T3, human Axl (Homo sapiens, UniProt P30530); assay: Kinase enzymatic activity assay (33P-radiolabeled phosphate transfer), Axl; conditions: recombinant human Axl (473-end), poly(4:1 glu:tyr) substrate, 30 minutes
T3 construct: GST (N); made in house; host or cells: Sf9 insect cells (baculovirus)
T3 sequence (P30530 473-894 limits assumed): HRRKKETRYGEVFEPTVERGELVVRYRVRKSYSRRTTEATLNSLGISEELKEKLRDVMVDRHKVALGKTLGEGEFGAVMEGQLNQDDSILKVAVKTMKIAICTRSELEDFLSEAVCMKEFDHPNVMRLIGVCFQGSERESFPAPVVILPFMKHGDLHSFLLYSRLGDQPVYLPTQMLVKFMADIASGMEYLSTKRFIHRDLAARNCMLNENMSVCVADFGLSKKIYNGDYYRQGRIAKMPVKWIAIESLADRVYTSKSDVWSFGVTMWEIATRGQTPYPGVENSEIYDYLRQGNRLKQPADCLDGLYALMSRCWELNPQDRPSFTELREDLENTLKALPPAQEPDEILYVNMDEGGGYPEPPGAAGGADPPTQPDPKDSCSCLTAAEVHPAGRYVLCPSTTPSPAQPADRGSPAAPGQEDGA
Excerpt: as §1, §2, §3, §4, §5, §6, §7, §8, §9, §10, §11

With `Fc1ccc(Oc2ncnc3cc(OCCN4CCCCC4)cc(OC4CCOCC4)c23)c(Cl)c1` [Example 1, 4-(2-chloro-4-fluorophenoxy)-7-(2-(piperidin-1-yl)ethoxy)-5-((tetrahydro-2H-pyran-4-yl)oxy)quinazoline] the IC50 (human Mer) was < 0.5 µM, the IC50 (human Tyro3) was < 0.5 µM and the IC50 (human Axl) was 1 to 10 µM.
In the case of `CN1CCC(CCOc2cc(OC3CCOCC3)c3c(Oc4ccc(F)cc4Cl)ncnc3c2)CC1` [Example 2, 4-(2-chloro-4-fluorophenoxy)-7-(2-(1-methylpiperidin-4-yl)ethoxy)-5-((tetrahydro-2H-pyran-4-yl)oxy)quinazoline], the IC50 (human Mer) is reported as < 0.5 µM, the IC50 (human Tyro3) is reported as < 0.5 µM and the IC50 (human Axl) is reported as 1 to 10 µM.
In the case of `Fc1ccc(Oc2ncnc3cc(OCCN4CCOCC4)cc(OC4CCOCC4)c23)c(Cl)c1` [Example 2.1, 4-(2-((4-(2-chloro-4-fluorophenoxy)-5-((tetrahydro-2H-pyran-4-yl)oxy)-quinazolin-7-yl)oxy)ethyl)morpholine], the IC50 (human Mer) is reported as 0.5 to 1 µM, the IC50 (human Tyro3) is reported as 1 to 10 µM and the IC50 (human Axl) is reported as 1 to 10 µM.
In the case of `CN(C)CCOCCOc1cc(OC2CCOCC2)c2c(Oc3ccc(F)cc3Cl)ncnc2c1` [Example 2.2, 2-(2-((4-(2-chloro-4-fluorophenoxy)-5-((tetrahydro-2H-pyran-4-yl)oxy)quinazolin-7-yl)oxy)ethoxy)-N,N-dimethylethanamine], the IC50 (human Mer) is reported as < 0.5 µM, the IC50 (human Tyro3) is reported as < 0.5 µM and the IC50 (human Axl) is reported as 1 to 10 µM.
In the case of `COCCN(C)CCOc1cc(OC2CCOCC2)c2c(Oc3ccc(F)cc3Cl)ncnc2c1` [Example 2.3, 2-((4-(2-chloro-4-fluorophenoxy)-5-((tetrahydro-2H-pyran-4-yl)oxy)quinazolin-7-yl)oxy)-N-(2-methoxyethyl)-N-methylethanamine], the IC50 (human Mer) is reported as 1 to 10 µM, the IC50 (human Tyro3) is reported as 0.5 to 1 µM and the IC50 (human Axl) is reported as > 10 µM.
For `COCCOCCOc1cc(OC2CCOCC2)c2c(Oc3ccc(F)cc3Cl)ncnc2c1` [Example 2.4, 4-(2-chloro-4-fluorophenoxy)-7-(2-(2-methoxyethoxy)ethoxy)-5-((tetrahydro-2H-pyran-4-yl)oxy)quinazoline], the IC50 (human Mer) was 1 to 10 µM, the IC50 (human Tyro3) was 1 to 10 µM and the IC50 (human Axl) was > 10 µM.
In the case of `Fc1ccc(Oc2ncnc3cc(OCCCN4CCOCC4)cc(OC4CCOCC4)c23)c(Cl)c1` [Example 2.5, 4-(3-((4-(2-chloro-4-fluorophenoxy)-5-((tetrahydro-2H-pyran-4-yl)oxy)quinazolin-7-yl)oxy)propyl)morpholine], the IC50 (human Mer) is reported as < 0.5 µM, the IC50 (human Tyro3) is reported as < 0.5 µM and the IC50 (human Axl) is reported as 0.5 to 1 µM.
`CC1(C)OC[C@H](COc2cc(OC3CCOCC3)c3c(Oc4ccc(F)cc4Cl)ncnc3c2)O1` [Example 2.9, (S)-4-(2-chloro-4-fluorophenoxy)-7-((2,2-dimethyl-1,3-dioxolan-4-yl)methoxy)-5-((tetrahydro-2H-pyran-4-yl)oxy)quinazoline] gave an IC50 (human Mer) of 1 to 10 µM, an IC50 (human Tyro3) of 1 to 10 µM and an IC50 (human Axl) of 1 to 10 µM.
With `COCCN1CCN(c2cc(OC3CCOCC3)c3c(Oc4ccc(F)cc4Cl)ncnc3c2)CC1` [Example 2.10, 4-(2-chloro-4-fluorophenoxy)-7-(4-(2-methoxyethyl)piperazin-1-yl)-5-((tetrahydro-2H-pyran-4-yl)oxy)quinazoline] the IC50 (human Mer) was 0.5 to 1 µM, the IC50 (human Tyro3) was < 0.5 µM and the IC50 (human Axl) was 1 to 10 µM.
For `COc1cc(OCCN2CCN(C)CC2)cc2ncnc(Oc3ccc(F)cc3Cl)c12` [Example 2.12, 4-(2-chloro-4-fluorophenoxy)-5-methoxy-7-(2-(4-methylpiperazin-1-yl)ethoxy)quinazoline], the IC50 (human Mer) was 1 to 10 µM, the IC50 (human Tyro3) was < 0.5 µM and the IC50 (human Axl) was 1 to 10 µM.
For `COc1cc(OCC2CCN(C)CC2)cc2ncnc(Nc3nc(C(F)(F)F)cs3)c12` [Example 2.13, N-(5-methoxy-7-((1-methylpiperidin-4-yl)methoxy)quinazolin-4-yl)-4-(trifluoromethyl)thiazol-2-amine], the IC50 (human Mer) was > 10 µM, the IC50 (human Tyro3) was > 10 µM and the IC50 (human Axl) was < 0.5 µM.
In the case of `CN1CCN(CCOc2cc(OC3CCOCC3)c3c(Nc4nccs4)ncnc3c2)CC1` [Example 2.14, N-(7-(2-(4-methylpiperazin-1-yl)ethoxy)-5-((tetrahydro-2H-pyran-4-yl)oxy)quinazolin-4-yl)thiazol-2-amine], the IC50 (human Mer) is reported as < 0.5 µM, the IC50 (human Tyro3) is reported as 1 to 10 µM and the IC50 (human Axl) is reported as < 0.5 µM.
For `CN(C)CCN(C)CCOc1cc(OC2CCOCC2)c2c(Oc3ccc(F)cc3Cl)ncnc2c1` [Example 2.15, N^1-(2-((4-(2-chloro-4-fluorophenoxy)-5-((tetrahydro-2H-pyran-4-yl)oxy)quinazolin-7-yl)oxy)ethyl)-N^1,N^2,N^2-trimethylethane-1,2-diamine], the IC50 (human Mer) was 0.5 to 1 µM, the IC50 (human Tyro3) was 0.5 to 1 µM and the IC50 (human Axl) was 1 to 10 µM.
`COc1ncnc2cc(OCCOCCN(C)C)cc(OC3CCOCC3)c12` [Example 2.16, 2-(2-((4-methoxy-5-((tetrahydro-2H-pyran-4-yl)oxy)quinazolin-7-yl)oxy)ethoxy)-N,N-dimethylethanamine] was tested, and the IC50 (human Mer) was > 10 µM, the IC50 (human Tyro3) was 1 to 10 µM and the IC50 (human Axl) was < 0.5 µM.
With `COc1cc(OCCCN2CCOCC2)cc2ncnc(Oc3ccc(F)cc3Cl)c12` [Example 2.17, 4-(3-((4-(2-chloro-4-fluorophenoxy)-5-methoxyquinazolin-7-yl)oxy)propyl)morpholine] the IC50 (human Mer) was 1 to 10 µM, the IC50 (human Tyro3) was < 0.5 µM and the IC50 (human Axl) was 1 to 10 µM.
For `CN(C)CCC1CCN(c2cc(OC3CCOCC3)c3c(Nc4nc(C(F)(F)F)cs4)ncnc3c2)CC1` [Example 2.44, N-(7-(4-(2-(dimethylamino)ethyl)piperidin-1-yl)-5-((tetrahydro-2H-pyran-4-yl)oxy)quinazolin-4-yl)-4-(trifluoromethyl)thiazol-2-amine], the IC50 (human Tyro3) was 1 to 10 µM and the IC50 (human Axl) was < 0.5 µM.
